Reference: a melting point compilation (Tetko et al.)

Row | SMILES | melting point
1 | O=[N+]([O-])c1ccccc1N=C=S | 75 °C
2 | Nc1ccc(N2CCOCC2)c(Cl)c1 | 102 to 104 °C
3 | Cc1[nH]c2ccc([N+](=O)[O-])cc2c1C | 189 °C
4 | CN(C)c1ccc(C(Br)=NNc2ccc([N+](=O)[O-])cc2)cc1 | 188 °C
5 | Cc1cnc(N)s1 | 97 °C
6 | C/C(Cl)=C/C(=O)O | 61 °C
7 | Nc1cccnc1Oc1ccccc1F | 87 to 89 °C
8 | c1ccc(CP(c2ccccc2)c2ccccc2)cc1 | 75 °C
9 | CCCCNc1ccccc1 | -12 °C
10 | C1COCCNCCOCCOCCN1 | 89 to 92 °C
11 | NC(=S)c1cccc2c1OCCO2 | 106 to 109 °C
12 | CC(=O)Nc1ccc(OC(=O)c2ccccc2O)cc1 | 187 °C
13 | Clc1ccc(Cc2c(N=Cc3ccccc3)n[nH]c2N=Cc2ccccc2)cc1 | 180 to 182 °C
14 | Oc1ccc(O)c2ccccc12 | 188 to 192 °C
15 | N#C/C(=C\c1ccccc1Cl)c1nc(-c2cccs2)cs1 | 102 °C
16 | ClCC1CCN(c2ncnc3ccsc23)CC1 | 99 to 100 °C
17 | COc1ccc(-c2cn3c(n2)sc2ccccc23)cc1 | 177 to 179 °C
18 | CC#Cc1cc(C)nc(Nc2ccccc2)n1 | 133 °C
19 | O=C(O)c1cccc2c1-c1ccccc1C2 | 192 to 194 °C
20 | CCC1OC(=O)C(C)C(OC2CC(C)(OC)C(O)C(C)O2)C(C)C(OC2OC(C)CC(N(C)C)C2O)C(C)(O)CC(C)C(=O)C(C)C(O)C1(C)O (stereo unspecified) | 135 °C
21 | O=C(O)Cc1ccc(Cl)c(Cl)c1 | 90 °C
22 | O=C(N[C@@H](CSC(c1ccccc1)(c1ccccc1)c1ccccc1)C(=O)O)OCC1c2ccccc2-c2ccccc21 | 172 to 177 °C
23 | CN(C)c1ccc(C=O)c(Cl)c1 | 83 to 84 °C
24 | O=C(O)c1cccc(C(=O)O)c1C(=O)O | 200 °C
25 | COc1cc(F)ccc1C(=O)O | 134 to 136 °C
26 | O=C1c2ccccc2C(=C(c2ccccc2)c2ccccc2)c2ccccc21 | 203 to 207 °C

Row | SMILES | melting point
27 | CNCc1sc(-c2ccccc2)nc1-c1ccccc1 | 87 to 88 °C
28 | CC(Oc1ccc2ccccc2c1)C(=O)Nc1ccccc1 (stereo unspecified) | 128 °C
29 | CCOC(=O)c1cnn(C)c1N | 101 to 102 °C
30 | FC(F)(F)C(F)(F)C(F)(F)N(C(F)(F)C(F)(F)C(F)(F)F)C(F)(F)C(F)(F)C(F)(F)F | -52 °C
31 | CCc1nc(CC)nc(NS(=O)(=O)c2ccc(N)cc2)n1 | 187 °C
32 | O=[N+]([O-])c1cc(C(O)Cc2ccc3ccccc3n2)ccc1C(O)Cc1ccc2ccccc2n1 (stereo unspecified) | 172 °C
33 | Nc1cccc(Cl)c1C(=O)O | 159 °C
34 | CN(C)c1ccc(N=C2C=CC(=O)C=C2)cc1 | 134 °C
35 | OC1OCC(Cc2ccc3c(c2)OCO3)C1Cc1ccc2c(c1)OCO2 (stereo unspecified) | 132 °C
36 | CCCc1cccc(O)c1 | 26 °C
37 | CC(=O)c1ccc(C(C)=O)cc1 | 112 °C
38 | c1ccc2[nH]ncc2c1 | 148 °C
39 | CCOc1cccc(-c2ccccc2)c1 | 35 °C
40 | Nc1ncnc2[nH]cnc12 | 360 to 365 °C
41 | O=[N+]([O-])c1ccc(-c2csc(CCl)n2)cc1 | 154 to 158 °C
42 | CCCCCC(=O)OCC | -67 °C
43 | O=Cc1ccc(Oc2cccnc2)o1 | 72 to 73 °C
44 | CCOC(=O)Cn1nc(-c2ccccc2)c2ccccc2c1=O | 224 °C
45 | CCCc1c(O)c(C(C)=O)cc(C(C)=O)c1O | 99 to 100 °C
46 | CCOc1nc2ccccc2c(=O)n1CCO | 81 to 82 °C
47 | N#CC1=C(N)n2nc(C(F)(F)F)nc2NC1c1ccc(Cl)cc1Cl (stereo unspecified) | 305 to 307 °C
48 | Cn1c(=O)c(C2=NNC(=O)C2=Cc2ccc(Cl)cc2Cl)c(O)c2ccccc21 | 280 °C
49 | COc1cc(C(=O)c2ccc(-c3ccccc3)cc2)c([N+](=O)[O-])cc1OC | 144 to 145 °C
50 | N#Cc1ccnc(I)c1 | 79 °C
51 | O=c1[nH]c(=O)n(-c2cccc(C(F)(F)F)c2)c2c1CCCC2 | 252 to 255 °C
52 | O=C1Nc2ccc(Br)cc2C1=O | 251 to 253 °C

Row | SMILES | melting point
53 | Cc1cnnc2c1-c1nonc1CC2 | 155 to 158 °C
54 | O=Cc1ccc(Sc2ccc(Cl)cc2)c([N+](=O)[O-])c1 | 120 °C
55 | COc1ccc(/C=C2\SC(=S)N(CN3CCOCC3)C2=O)cc1 | 133 °C
56 | CC(C)NCC(O)COc1cccc2[nH]ccc12 (stereo unspecified) | 170 °C
57 | Cc1cc(CO)n(C)n1 | 52 to 54 °C
58 | CCOC(=O)c1c(C)cc(O)cc1O | 132 °C
59 | O=S1(=O)OC(c2cc(Br)c(O)c(Br)c2)(c2cc(Br)c(O)c(Br)c2)c2c(Br)c(Br)c(Br)c(Br)c21 | 203 to 205 °C
60 | CC(C)(C(=O)O)C(F)(F)F | 70 °C
61 | COc1ccc(C=CC(=O)C=Cc2ccc(OC)cc2)cc1 | 129 °C
62 | O=CC(=O)O | 98 °C
63 | O=Cc1cc2ccccc2n1S(=O)(=O)c1ccccc1 | 111 to 112 °C
64 | O=C(O)CN(CCOCCOCCN(CC(=O)O)CC(=O)O)CC(=O)O | 240 to 245 °C
65 | COc1ccc(-c2c(C(=O)O)sc(SC)c2C#N)cc1 | 209 to 214 °C
66 | O=C(C=Cc1ccccc1)c1ccc(F)cc1 | 79 to 80 °C
67 | Clc1cc(Cl)c2cc(Cl)cc(Cl)c2c1 | 180 °C
68 | O=[N+]([O-])c1ccc(C2Nn3c(nnc3-c3cccc([N+](=O)[O-])c3)S2)cc1 (stereo unspecified) | 205 °C
69 | CCCC(=O)c1cc2ccccc2oc1=O | 93 to 94 °C
70 | CC(C)(C=O)C(c1ccccc1)C(C(=O)O)C(=O)O (stereo unspecified) | 153 °C
71 | CN(C)c1ccc(C=C2C(=O)NN=C2c2c(O)c3ccccc3n(C)c2=O)cc1 | 262 °C
72 | CCC(=O)NC | -30.9 °C
73 | Nc1cc(Br)cnc1N | 160 to 165 °C
74 | Nc1ccc(C2=NN(c3ccccc3)C(=O)C2)cc1 | 160 °C
75 | O=C(O)c1cc(O)ccc1[N+](=O)[O-] | 170 °C
76 | O=C(O)CN(CCO)CCN(CC(=O)O)CC(=O)O | 212 to 214 °C
77 | Cc1ccc(O)c(C=O)c1 | 56 °C
78 | CC(=O)Oc1nc(C2CCCCC2)nn1-c1ccccc1 | 108 °C

Row | SMILES | melting point
79 | CCn1c(=O)c(C=C2C(=O)NN=C2c2c(O)c3ccccc3n(C)c2=O)c(O)c2ccccc21 | 295 °C
80 | N#Cc1ccc(CN2CCCCC2)cc1 | 38 to 40 °C
81 | C#CC1(O)CCC2C3CCc4cc(O)ccc4C3C(OC)CC21C (stereo unspecified) | 280 °C
82 | O=C(O)CCC(=O)c1ccc2c(c1)-c1cccc3cccc-2c13 | 208 °C
83 | CC1(C)OC(=O)C2(Cc3ccccc3C2)C(=O)O1 | 158 °C
84 | O=S(=O)(Cl)c1c(F)c(Br)cc(F)c1Br | 69 °C
85 | COC(=O)C1CCC(C)(C(C)(C)O)OC1(C)C (stereo unspecified) | 139 °C
86 | Cc1nc(-c2ccc(Cl)cc2)sc1C(=O)O | 251 °C
87 | N#Cc1cc(Cl)ccc1Cl | 130 to 132 °C
88 | CCCCCCCCCCCCCCCCC(CCC)c1ccccc1 (stereo unspecified) | 31.4 °C
89 | COc1cc(C)cc(OC)c1OC | 36 °C
90 | NC(=O)C#CC(N)=O | 238 °C
91 | N#CCc1cccc(C(F)(F)F)c1Cl | 57.5 °C
92 | C=C1CCC(O)CC1=CC=C1CCCC2(C)C1CCC2C(C)CCCC(C)C (stereo unspecified) | 84.5 °C
93 | O=C(C=Cc1ccc(F)cc1)C=Cc1ccc(F)cc1 | 141 to 146 °C
94 | C=C(O[Si](C)(C)C)c1c(C)c(C)c(C)c(C)c1C | 41 °C
95 | CCCCCCCCCCS(=O)(=O)Cl | 34 °C
96 | C=CSC=C | 20 °C
97 | N=c1sc(C(=O)c2cccs2)nn1-c1c(Cl)cc(Cl)cc1Cl | 209 °C
98 | COC(=O)CC(C)CCC1C(C)(O)CCC2C(C)(C)CCCC21C (stereo unspecified) | 68.3 to 71.3 °C
99 | CCCCNCC | -78 °C
100 | O=[N+]([O-])c1ccc(Cl)c(C(F)(F)F)c1 | 22 °C
101 | Cc1[nH]c(=O)n(C(C)C)c(=O)c1Br | 158 °C
102 | NNc1ccccc1C(F)(F)F | 60 °C
103 | c1ccc(-c2ccc3c4c(c5c(c3c2)CCCC5)CCCC4)cc1 | 136 °C
104 | Cc1n[nH]c2c1c(=O)n(-c1ccccc1)c1ccccc21 | 162 to 163 °C

Row | SMILES | melting point
105 | C=CCSC(=O)n1c(N)c(-c2ccccc2C)c(=O)n1C(C)C | 116 °C
106 | Clc1ccccc1-c1ccccc1Cl | 61.5 °C
107 | CC(C)(C)OC(=O)N[C@@H](CC(=O)OCc1ccccc1)C(=O)O | 111 °C
108 | C=CC[C@H](N)C(=O)O | 253 to 255 °C
109 | O=C(Cl)c1cccc(C(Cl)Cl)c1 | 57 to 63 °C
110 | Cc1noc(C)c1CO | 76 to 77 °C
111 | Brc1cc2c(cc1Br)Oc1ccccc1O2 | 158 °C
112 | CC(C)(C)C(=O)OCC(=O)C1(O)CCC2C3CCC4=CC(=O)C=CC4(C)C3C(O)CC21C (stereo unspecified) | 233 °C
113 | COc1cc(C)c(C=CC(C)=CC=CC(C)=CC(=O)O)c(C)c1C | 228 °C
114 | O=Cc1cc2nccnc2s1 | 108 to 109 °C
115 | Brc1ccc(Oc2cc(Br)c(Br)cc2Br)c(Br)c1 | 82 °C
116 | O=C(c1ccc(Cl)c([N+](=O)[O-])c1)C1CC1 | 78 to 80 °C
117 | CN1CCOc2cc(S(=O)(=O)Cl)cnc21 | 130 to 132 °C
118 | CC(=O)C(=Cc1ccc(-c2ccccc2[N+](=O)[O-])o1)C(C)=O | 127 to 128 °C
119 | O=c1c(Br)c(SCc2ccccc2)cnn1-c1ccccc1 | 137 to 138 °C
120 | O=C(CBr)c1ccsc1 | 61 to 62 °C
121 | O=C1CCCC1C1(O)C(=O)Nc2ccccc21 (stereo unspecified) | 187 °C
122 | CC(=NNC(N)=O)c1ccncc1 | 218 °C
123 | c1cc(CCCc2ccncc2)ccn1 | 55 °C
124 | CCCCCCCCCCCCCCCCCCCCCCCC(=O)O | 84.2 °C
125 | O=S(=O)(c1ccc(N=C=S)cc1)N1CCCCC1 | 126 to 127 °C
126 | OCCCCC#CC#CCCCCO | 50 °C
